Results: patent US7183283B2, “Piperidinyl-alkylamino-pyridazinone derivatives, a process for the preparation thereof and pharmaceutical compositions containing said compounds” (Egis Gyogyszergyar RT., priority 2002, dated 2007)

How the values were obtained:
rats = assay: Elevated plus-maze (anxiolytic effect); assay type: in vivo, rat; conditions: male Sprague-Dawley rats, po, tested 60 min after treatment, 5 min test time
Description: Tests have been performed as described by Pellow and co-workers [J. Neurosci. Methods, 14, 149 (1985)]. A wooden cross, 15 cm wide with 100 cm long arms was used for the experiments. The sides and ends of two opposite arms of the cross were equipped with 40 cm high walls, however, the arms were open to the 15×15 cm central area (closed arms). The two other opposite arms were not encircled by walls (open arms).
Male Sprague-Dawley rats weighing 200–220 g were used for the experiments. The animals were placed in the central area of the equipment 60 min after treatment and the following four parameters have been observed for the 5 min test time: • time spent in the open arms, • time spent in the closed arms, • number of entries into the open arms, • number of entries into the closed arms.
The effect was expressed as percent increase in either the time (measured in sec) spent in the open arms or number of entries into the open arms. MEDs (minimal effective dose) were determined for each compound regarding the time spent in the open arms. Results are summarized in Table I. Buspiron [8-[4-[4-(2-pyrimidinyl)-1-piperazinyl]-butyl]-8-azaspiro[4,5]decan-7,9-dion] was used as reference compound.

mice = assay: Inhibition of spontaneous motor activity (sedative effect); assay type: in vivo
Description: The effect on spontaneous motor activity was investigated according to Borsy and co-workers [Borsy, J. et al, Arch. Int. Pharmacodyn., 124, 180–190 (1960)] in a ten channel Dews instrument, with 1—1 animal in each channel. Animals were placed into the instrument 60 min after per os treatment with either vehicle or test compound, and interruptions of infrared beams were recorded for 30 min. […] Diazepam [7-chloro-1,3-dihydro-1-methyl-5-phenyl-2H-1,4-benzodiazepine-2-one] was used as reference compound.

[1] = mice, per os, placed in Dews instrument 60 min after treatment, recorded for 30 min

Row | Compound | MED (minimal effective dose) regarding the time spent in the open arms (rats) | ID50 (50 percent inhibitory dose), spontaneous motor activity (mice; [1]) | melting point | ID50 (50 percent inhibitory dose), spontaneous motor activity (mice; mouse, in vivo, 60 min)
1 | Cl.Cl.O=C(c1ccc(F)cc1O)C1CCN(CCNc2cn[nH]c(=O)c2)CC1 [Example 2, 5-{2-[4-[1-(4-fluoro-2-hydroxy-phenyl)-methanoyl]-piperidine-1-yl]-ethylamino}-2H-piridazine-3-one-dihydrochloride] | ≦0.3 mg/kg po | >100 mg/kg po | – | –
2 | CC(CNc1cnn(C)c(=O)c1)N1CCC(C(=O)c2ccc(F)cc2O)CC1 (stereo not shown) [Example 3, 5-{2-[4-[1-(4-fluoro-2-hydroxy-phenyl)-methanoyl]-piperidine-1-yl]-propylamino}-2-methyl-2H-pyridazine-3-one] | ≦0.3 mg/kg po | – | 199 to 201 °C | >100 mg/kg po
3 | O=C1CC2(CCCC2)CC(=O)N1CCCCN1CCN(c2ncccn2)CC1 [Buspiron, 8-[4-[4-(2-pyrimidinyl)-1-piperazinyl]-butyl]-8-azaspiro[4,5]decan-7,9-dion, reference compound] | 3.0 mg/kg po | – | – | –
4 | CN1C(=O)CN=C(c2ccccc2)c2cc(Cl)ccc21 [Diazepam, 7-chloro-1,3-dihydro-1-methyl-5-phenyl-2H-1,4-benzodiazepine-2-one, reference compound] | – | 7.0 mg/kg po | – | –
5 | Cn1ncc(NCCN2CCC(C(=O)c3ccc(F)cc3O)CC2)cc1=O [Example 1, 5-{2-[4-[1-(4-fluoro-2-hydroxy-phenyl)-methanoyl]-piperidine-1-yl]-ethylamino}-2-methyl-2H-pyridazine-3-one] | ≦0.03 mg/kg po | – | 200 to 202 °C | >100 mg/kg po
